29 compounds from patent US7973061B2, “Anaplastic lymphoma kinase modulators and methods of use” (Exelixis, Inc., priority 2004, dated 2011) can be followed below.

This test concerns the target T1, ALK (baculovirus expressed human ALK kinase domain F1098-K1410) (Homo sapiens, UniProt Q9UM73).
T1 construct: human ALK kinase domain F1098-K1410; made in house
Description: biochemical. To be noted: 1 μM ATP, 4 μM poly-AEKY, 12 nM ALK, 2 hours at ambient temperature; read-out: ALK IC50. On the procedure:
Kinase activity and compound inhibition are investigated using one or more of the three assay formats described below. The ATP concentrations for each assay are selected to be close to the Michaelis-Menten constant (KM) for each individual kinase. Dose-response experiments are performed at 10 different inhibitor concentrations in a 384-well plate format. […] Y=Min+(Max−Min)/(1+(X/IC50)^H) Equation (2) Luciferase-Coupled Chemiluminescent Kinase Assay
ALK biochemical activity was assessed using a Luciferase-Coupled Chemiluminescent Kinase assay (LCCA) format in which kinase activity was measured as the percent ATP remaining following the kinase reaction. ATP remaining after the kinase reaction was detected by luciferase-luciferin-coupled chemiluminescence. […] The mixture was incubated at ambient temperature for 2 hours after which 20 μL luciferase-luciferin mix was added and the chemiluminescent signal read using a Wallac Victor^2 reader. […] Consumption of ATP by ALK can be quantified and utilized as a measure of inhibition of ALK activity by compounds described herein. By employing serial dilutions of compounds to be tested, the ability of test compounds to inhibit ALK activity can be determined.

Usually IC50 stands for the concentration that inhibits the measured activity by half.

T1 sequence (Q9UM73 1098-1410): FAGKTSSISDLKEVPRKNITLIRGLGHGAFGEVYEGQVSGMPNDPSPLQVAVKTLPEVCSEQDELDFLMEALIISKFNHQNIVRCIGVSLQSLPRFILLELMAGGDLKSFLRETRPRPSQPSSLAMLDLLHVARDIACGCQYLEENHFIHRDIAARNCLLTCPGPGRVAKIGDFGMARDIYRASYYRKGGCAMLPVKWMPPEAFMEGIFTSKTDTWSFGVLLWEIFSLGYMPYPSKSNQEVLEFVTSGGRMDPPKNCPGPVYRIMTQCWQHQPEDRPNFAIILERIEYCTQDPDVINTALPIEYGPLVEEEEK

As to `COc1cccc(CCNC(=O)c2csc(CNC(=O)COc3ccc(OC(F)(F)F)cc3)n2)c1OC` [Entry 53, N-{2-[2,3-bis(methyloxy)phenyl]ethyl}-2-({[({4-[(trifluoromethyl)oxy]phenyl}oxy)acetyl]amino}methyl)-1,3-thiazole-4-carboxamide], the IC50 fell in the range of 50 to 500 nM.
Consider `NC(=O)C(NC(=O)c1csc(CNC(=O)COc2ccc(OC(F)(F)F)cc2)n1)c1ccccc1` (centres unmarked) [Entry 54, N-(2-amino-2-oxo-1-phenylethyl)-2-({[({4-[(trifluoromethyl)oxy]phenyl}oxy)acetyl]amino}methyl)-1,3-thiazole-4-carboxamide], for which the IC50 is 50 to 500 nM.
With `CC(C)c1ccc(OCC(=O)NCc2nc(C(=O)NCCc3ccccc3F)cs2)cc1` [Entry 55, N-[2-(2-fluorophenyl)ethyl]-2-{[({[4-(1-methylethyl)phenyl]oxy}acetyl)amino]methyl}-1,3-thiazole-4-carboxamide], the concentration for half-maximal inhibition (IC50) lay in the range of 50 to 500 nM.
The figure for `Cc1ccc(CCNC(=O)c2csc(CNC(=O)COc3ccc(OC(F)(F)F)cc3)n2)cc1C` [Entry 56, N-[2-(3,4-dimethylphenyl)ethyl]-2-({[({4-[(trifluoromethyl)oxy]phenyl}oxy)acetyl]amino}methyl)-1,3-thiazole-4-carboxamide] is 50 to 500 nM; for `O=C(COc1ccc(OC(F)(F)F)cc1)NCc1nc(C(=O)NCc2ccccc2OC(F)(F)F)cs1` [Entry 57, N-({2-[(trifluoromethyl)oxy]phenyl}methyl)-2-({[({4-[(trifluoromethyl)oxy]phenyl}oxy)acetyl]amino}methyl)-1,3-thiazole-4-carboxamide] it is 50 to 500 nM.
Regarding `CCOc1ccccc1CNC(=O)c1csc(CNC(=O)COc2ccc(OC(F)(F)F)cc2)n1` [Entry 58, N-{[2-(ethyloxy)phenyl]methyl}-2-({[({4-[(trifluoromethyl)oxy]phenyl}oxy)acetyl]amino}methyl)-1,3-thiazole-4-carboxamide], the IC50 was in the range of 50 to 500 nM.
For the compound `O=C(COc1ccc(I)cc1)NCc1nc(C(=O)NCCc2ccccc2F)cs1` [Entry 59, N-[2-(2-fluorophenyl)ethyl]-2-[({[(4-iodophenyl)oxy]acetyl}amino)methyl]-1,3-thiazole-4-carboxamide], the IC50 lay within 50 to 500 nM.
Consider `CCOc1ccccc1CCNC(=O)c1csc(CNC(=O)COc2ccc(OC(F)(F)F)cc2)n1` [Entry 60, N-{2-[2-(ethyloxy)phenyl]ethyl}-2-({[({4-[(trifluoromethyl)oxy]phenyl}oxy)acetyl]amino}methyl)-1,3-thiazole-4-carboxamide], for which the IC50 lay in the range of 50 to 500 nM.
In the case of `O=C(COc1ccc(OC(F)(F)F)cc1)NCc1nc(C(=O)NCc2cc(F)ccc2F)cs1` [Entry 61, N-[(2,5-difluorophenyl)methyl]-2-({[({4-[(trifluoromethyl)oxy]phenyl}oxy)acetyl]amino}methyl)-1,3-thiazole-4-carboxamide], the IC50 was in the range of 50 to 500 nM.
For the compound `O=C(NCCc1cccc(Cl)c1)c1csc(CNC(=O)c2cccnc2Oc2ccc(Cl)cc2)n1` [Entry 62, N-{[4-({[2-(3-chlorophenyl)ethyl]amino}carbonyl)-1,3-thiazol-2-yl]methyl}-2-[(4-chlorophenyl)oxy]pyridine-3-carboxamide], the IC50 fell in the range of 50 to 500 nM.
With `O=C(COc1ccc(OC(F)(F)F)cc1)NCc1nc(C(=O)NCc2ccccc2C(F)(F)F)cs1` [Entry 63, 2-({[({4-[(trifluoromethyl)oxy]phenyl}oxy)acetyl]amino}methyl)-N-{[2-(trifluoromethyl)phenyl]methyl}-1,3-thiazole-4-carboxamide], the IC50 lay in the range of 50 to 500 nM.
Turning to `O=C(COc1ccc(OC(F)(F)F)cc1)NCc1nc(C(=O)NCc2ccc(Cl)cc2Cl)cs1` [Entry 64, N-[(2,4-dichlorophenyl)methyl]-2-({[({4-[(trifluoromethyl)oxy]phenyl}oxy)acetyl]amino}methyl)-1,3-thiazole-4-carboxamide], the IC50 lay within 50 to 500 nM.
With `CCC(NC(=O)c1csc(CNC(=O)COc2ccc(OC(F)(F)F)cc2)n1)c1ccccc1` (centres unmarked) [Entry 65, N-(1-phenylpropyl)-2-({[({4-[(trifluoromethyl)oxy]phenyl}oxy)acetyl]amino}methyl)-1,3-thiazole-4-carboxamide], the IC50 was 50 to 500 nM.
Take `O=C(COc1ccc(OC(F)(F)F)cc1)NCc1nc(C(=O)N2CCN(c3c(Cl)cncc3Cl)CC2)cs1` [Entry 66, N-[(4-{[4-(3,5-dichloropyridin-4-yl)piperazin-1-yl]carbonyl}-1,3-thiazol-2-yl)methyl]-2-({4-[(trifluoromethyl)oxy]phenyl}oxy)acetamide]: the IC50 was in the range of 50 to 500 nM.
Turning to `CC(C)(C)c1ccc(OCC(=O)NCc2nc(C(=O)NCCc3cccc(Cl)c3)cs2)cc1` [Entry 67, N-[2-(3-chlorophenyl)ethyl]-2-{[({[4-(1,1-dimethylethyl)phenyl]oxy}acetyl)amino]methyl}-1,3-thiazole-4-carboxamide], the IC50 was 50 to 500 nM.
As for `CCOc1ccc(CCNC(=O)c2csc(CNC(=O)COc3ccc(OC(F)(F)F)cc3)n2)cc1` [Entry 68, N-{2-[4-(ethyloxy)phenyl]ethyl}-2-({[({4-[(trifluoromethyl)oxy]phenyl}oxy)acetyl]amino}methyl)-1,3-thiazole-4-carboxamide], the IC50 was 50 to 500 nM.
Take `O=C(COc1ccc(OC(F)(F)F)cc1)NCc1nc(C(=O)NCc2cc(Cl)cc(Cl)c2)cs1` [Entry 69, N-[(3,5-dichlorophenyl)methyl]-2-({[({4-[(trifluoromethyl)oxy]phenyl}oxy)acetyl]amino}methyl)-1,3-thiazole-4-carboxamide]: the IC50 lay within 50 to 500 nM.
Take `NC(=O)[C@@H](Cc1ccccc1)NC(=O)c1csc(CNC(=O)COc2ccc(OC(F)(F)F)cc2)n1` [Entry 70, Nalpha-{[2-({[({4-[(trifluoromethyl)oxy]phenyl}oxy)acetyl]amino}methyl)-1,3-thiazol-4-yl]carbonyl}-D-phenylalaninamide]: the IC50 fell in the range of 50 to 500 nM.
Turning to `O=C(COc1ccc(OC(F)(F)F)cc1)NCc1nc(C(=O)NCCSCc2ccco2)cs1` [Entry 71, N-{2-[(furan-2-ylmethyl)thio]ethyl}-2-({[({4-[(trifluoromethyl)oxy]phenyl}oxy)acetyl]amino}methyl)-1,3-thiazole-4-carboxamide], the IC50 is 50 to 500 nM.
Then `CC(C)c1ccc(OCC(=O)NCc2nc(C(=O)NCCc3cccc(Cl)c3)cs2)cc1` [Entry 72, N-[2-(3-chlorophenyl)ethyl]-2-{[({[4-(1-methylethyl)phenyl]oxy}acetyl)amino]methyl}-1,3-thiazole-4-carboxamide], with 50 to 500 nM; and `O=C(COc1ccc(OC(F)(F)F)cc1)NCc1nc(C(=O)NCc2ccc(Cl)c(C(F)(F)F)c2)cs1` [Entry 73, N-{[4-chloro-3-(trifluoromethyl)phenyl]methyl}-2-({[({4-[(trifluoromethyl)oxy]phenyl}oxy)acetyl]amino}methyl)-1,3-thiazole-4-carboxamide], with 50 to 500 nM; and `CCCOCCCNC(=O)c1csc(CNC(=O)COc2ccc(OC(F)(F)F)cc2)n1` [Entry 74, N-[3-(propyloxy)propyl]-2-({[({4-[(trifluoromethyl)oxy]phenyl}oxy)acetyl]amino}methyl)-1,3-thiazole-4-carboxamide], with 50 to 500 nM.
As for `O=C(COc1ccc(OC(F)(F)F)cc1)NCc1nc(C(=O)NCc2ccc(Cl)c(Cl)c2)cs1` [Entry 75, N-[(3,4-dichlorophenyl)methyl]-2-({[({4-[(trifluoromethyl)oxy]phenyl}oxy)acetyl]amino}methyl)-1,3-thiazole-4-carboxamide], the IC50 is 50 to 500 nM.
With `O=C(COc1ccc(OC(F)(F)F)cc1)NCc1nc(C(=O)NC2CCCCCCC2)cs1` [Entry 76, N-cyclooctyl-2-({[({4-[(trifluoromethyl)oxy]phenyl}oxy)acetyl]amino}methyl)-1,3-thiazole-4-carboxamide], the IC50 lay in the range of 50 to 500 nM.
Then `O=C(COc1ccc(OC(F)(F)F)cc1)NCc1nc(C(=O)NCCc2ccccn2)cs1` [Entry 77, N-(2-pyridin-2-ylethyl)-2-({[({4-[(trifluoromethyl)oxy]phenyl}oxy)acetyl]amino}methyl)-1,3-thiazole-4-carboxamide], with 50 to 500 nM; and `COc1cccc(CNC(=O)c2csc(CNC(=O)Nc3ccc(C(C)C)cc3)n2)c1OC` [Entry 78, N-{[2,3-bis(methyloxy)phenyl]methyl}-2-{[({[4-(1-methylethyl)phenyl]amino}carbonyl)amino]methyl}-1,3-thiazole-4-carboxamide], with 50 to 500 nM.
For `O=C(COc1ccc(OC(F)(F)F)cc1)NCc1nc(C(=O)N[C@H]2CCCc3ccccc32)cs1` [Entry 79, N-[(1S)-1,2,3,4-tetrahydronaphthalen-1-yl]-2-({[({4-[(trifluoromethyl)oxy]phenyl}oxy)acetyl]amino}methyl)-1,3-thiazole-4-carboxamide], the IC50 is 50 to 500 nM.
As to `COc1ccccc1CCNC(=O)c1csc(CNC(=O)COc2ccc(OC(F)(F)F)cc2)n1` [Entry 80, N-{2-[2-(methyloxy)phenyl]ethyl}-2-({[({4-[(trifluoromethyl)oxy]phenyl}oxy)acetyl]amino}methyl)-1,3-thiazole-4-carboxamide], the IC50 was 50 to 500 nM.
As for `COc1ccc(OCCNC(=O)c2csc(CNC(=O)COc3ccc(OC(F)(F)F)cc3)n2)cc1` [Entry 81, N-(2-{[4-(methyloxy)phenyl]oxy}ethyl)-2-({[({4-[(trifluoromethyl)oxy]phenyl}oxy)acetyl]amino}methyl)-1,3-thiazole-4-carboxamide], the IC50 was 50 to 500 nM.
